Converted amounts (≈) assume the structure as drawn. The source made the active and inactive calls. The calls are words filed in the database; no cut-off is given here.
Tests used:
[1] = Therapeutic index, ratio of GI50 for human PNT1A cells to GI50 for human HeLa cells; format: toxicity; conditions: PNT1A cells and HeLa cells, read-out: TI
HeLa [2] = assay: Antimitotic effect in human HeLa cells expressing EGFP-tubulin assessed as chromosome congression defect by measuring progressing through mitosis to prolonged pro-metaphase arrest at 7.5 nM incubated for 4 hrs by immunolabelling based live-cell imaging/inverted microscopy; format: functional
HeLa [3] = assay: Antimitotic effect in human HeLa cells expressing EGFP-tubulin assessed as chromosome congression defect by measuring correcting the syntelic attachment at 7.5 nM incubated for 4 hrs by live-cell imaging/inverted microscopy; format: functional, cell-based
Tubulin (Homo sapiens) [4] = molecular target: T1, Tubulin (Homo sapiens) (UniProt P68371+Q9H4B7+P0DPH7+P68366+Q13509+Q71U36+P04350+Q3ZCM7+P07437+P68363+Q9BQE3+Q6PEY2+Q13885+Q9BVA1+Q9BUF5); assay: Inhibition of microtubule (unknown origin) polymerization at 25 uM by fluorescence- based assay relative to control; format: protein-complex assay
Tubulin (Homo sapiens) [5] = molecular target: T1, Tubulin (Homo sapiens); assay: Induction of microtubule organization changes in human Hela cells assessed as decrease in spindle length at GI50 concentration incubated for 4 hrs by inverted microscopy; format: cell-based
HeLa [6] = assay: Antimitotic effect in human HeLa cells expressing EGFP-tubulin assessed as chromosome congression defect by measuring mitotic exit/cell death at 7.5 nM incubated for 4 hrs by immunolabelling based live-cell imaging/inverted microscopy; format: functional
[7] = Solubility of the compound by laser nephelometry; format: physicochemical
HeLa [8] = assay: Antiproliferative activity against human HeLa cells assessed as reduction in cell viability incubated for 48 hrs by MTT assay; format: functional
HeLa [9] = assay: Induction of apoptosis in human HeLa cells assessed as total number of cells died at 20 uM measured upto 30 hrs by Annexin V labelling method relative to control; format: functional

Row | Structure (SMILES) | selectivity ratio [1] | inhibition (Tubulin (Homo sapiens) [4]) [%] | Activity (Tubulin (Homo sapiens) [5]) | solubility kinetic [7] [µM] | also measured
1 | C#CCCCc1nc(=O)c2c(-c3ccccc3)c(C(=O)c3ccc(N4CCOCC4)cc3)[nH]c2[nH]1 | 2 |  |  |  | 
2 | C#CCCCc1nc(=O)c2c(-c3ccccc3)c(C(=O)c3ccc(OCCOCC)cc3)[nH]c2[nH]1 | 2 | 100 | Active | 14 (≈ 6.57 µg/mL) | Activity (HeLa [2]): Active; Activity (HeLa [3]): Active; Activity (HeLa [6]): Active
3 | C#CCCCc1nc(=O)c2c(-c3cccc(Br)n3)c(C(=O)c3ccc(OCCOCC)cc3)[nH]c2[nH]1 |  |  |  |  | GI50 (HeLa [8]): 0.0224 µM
4 | C#CCCCc1nc(=O)c2c(-c3cc(F)cc(F)c3)c(C(=O)c3ccc(OCCOCC)cc3)[nH]c2[nH]1 |  |  | Active | 14 (≈ 7.08 µg/mL) | Activity (HeLa [9]): 85%
5 | C#CCCCc1nc(=O)c2c(-c3ccccc3)c(C(=O)c3ccc(OCCN4CCCC4)cc3)[nH]c2[nH]1 |  |  |  |  | solubility [7]: Soluble
6 | C#CCCCc1nc(=O)c2c(-c3cccc(F)c3)c(C(=O)c3ccc(OCCOCC)cc3)[nH]c2[nH]1 | 2 | 100 | Active | 14 (≈ 6.83 µg/mL) | Activity (HeLa [9]): 87%; GI50 (HeLa [8]): 0.016 µM
7 | C#CCCCc1nc(=O)c2c(-c3ccccc3)c(C(=O)c3ccccc3)[nH]c2[nH]1 |  | 100 |  |  | 
8 | C#CCCCc1nc(=O)c2c(-c3ccccc3)c(C(=O)c3ccc(OCCN4CCOCC4)cc3)[nH]c2[nH]1 |  | 100 | Active |  | solubility [7]: Soluble
